Experimental data: US20240360094A1, “COMPOUND FOR TREATING DISEASES RELATED TO CEREBRAL ISCHEMIC INJURY” (JIANGSU CHIA TAI FENGHAI PHARMACEUTICAL CO., LTD., priority 2021, published 2024)
Like-named read-outs stand apart in the source and are kept apart here. Marks after values point to notes of the source that are not given here.

Assays:
[1] = Pharmacokinetic test in rats; format: in vivo, rat; details: male SD rats
Description: Male SD rats (weighing 180-260 g) were administered with compound (I) at a dose of 1.0 mg/kg by tail vein injection and at a dose of 10.0 mg/kg orally. Each group consisted of 3 animals. The solvent for administration was a solution of 5% DMSO+5% polyethoxylated castor oil (Cremophor EL) in normal saline. The rats were fasted for about 12 h before administration and were given ad libitum access to food 4 h after administration, and water was available all the time. Blood was collected from the orbit at about 0.2 mL before administration and 5 min, 15 min, 30 min, 1 h, 2 h, 4 h, 6 h, 8 h, and 24 h after administration. The samples were placed in EDTA-K2 anticoagulant EP tubes in an ice bath, and subjected to low-speed centrifugation at 4° C. and 3500 rpm for 10 min to isolate plasma, which was then stored at −20° C. before analysis. The concentration of compound (I) in the plasma was quantified by liquid chromatography-tandem mass spectrometry (LC-MS/MS). Pharmacokinetic parameters were calculated from the analysis results of the samples using WinNonlin software.

[2] = Distribution in brain tissues of rats (plasma and brain concentration); format: in vivo; details: rat, po, male SD rats, 20 mg/kg p.o.
Description: Plasma and brain tissue samples were collected from the animals at 0.5 h, 1 h, 4 h, and 24 h after administration. Collection of plasma: 0.2 mL of whole blood was collected by using an EP tube containing EDTA-K2 and centrifuged at 3500 g for 10 min, and then the upper plasma was collected and stored at −20° C. Collection of brain tissue: after the animals were euthanized, a proper amount of brain tissues were weighed out and homogenized with methanol in water (80%, w/v) at a ratio of 1:4. The concentration of compound in the plasma and brain tissue samples was quantified by liquid chromatography-tandem mass spectrometry (LC-MS/MS).

[3] = system: Middle cerebral artery occlusion (MCAO) models of SD rats; assay: Rat cerebral stroke model (MCAO), 28 days, pathological examination of brain; format: in vivo
Description: Middle cerebral artery occlusion (MCAO) models of SD rata were constructed by using the suture occlusion method. The rats were administered with the test compound for 28 consecutive days. The pharmacodynamic evaluation on the test compound for cerebral stroke was obtained based on general observation and neurobehavioral assessment. After anesthesia induction with 3.0% isoflurane in SD rats (240-280 g), the operation was performed and the right common carotid artery (CCA), and the right-side neck area was dissected to reveal the right common carotid artery (CCA), external carotid artery (ECA) and internal carotid artery (ICA). The ECA was ligated. The ICA was temporarily occluded. Sutures were threaded at both the proximal end and the distal end of CCA. The distal end was securely ligated, and a loosely tied knot was placed at the proximal end. A small incision was made on the CCA between these two sutures. A No. 4-0 suture was inserted through the incision of CCA and slowly and gently pushed into the ICA. The threading was stopped temporarily when reaching the artery clamp of ICA. The pre-ligation suture was further tightened. The artery clamp blocking the blood flow in the ICA was removed, allowing the suture occlusion to be advanced into the ICA until it entered the intracranial region. […] The insertion was stopped at the moment, and the time was recorded. The artery clamp on the CCA was removed and the incision was closed after no active bleeding was observed. The ischemic rats were placed at room temperature to keep their body temperature at 37° C., and anesthesia induction could be carried out 120 min later. The suture was slowly and gradually withdrawn when the rats were maintained under anesthesia, so that the proximal end of the suture returned to the ECA, thereby initiating reperfusion of the middle cerebral artery. Animals received the designated dosage immediately (within 10 min) after reperfusion. This dosing regimen continued once daily for a duration of 28 days, with the day of operation being defined as D1 (Day 1). A total of 5 groups were set, sham surgery group, model control group, NBP group (60 mg/kg, p.o., q.d), compound (I) low dose p.o. group (6 mg/kg, p.o., q.d), and a compound (I) high dose p.o. group (20 mg/kg, p.o., q.d). During administration, all animals were subjected to grid walking tests (D7, D14, D21, and D28, 4 times in total) and novel object recognition tests (adaptation for novel object recognition on D26, test on D27). After the completion of the 28-day dosing period, all surviving animals in the study were euthanized, and their brains were rapidly collected for pathological analysis. (3) Pathological examination: 1) the restoration range: samples with a restoration area range of >30% are considered to be good in recovery, while samples with a restoration area range of ≤30% are considered to be poor in recovery. […] In addition, for the compound (I) low dose group and the compound (I) high dose group, the proportion values of animal samples having >10 erythrocyte-containing blood vessels in the restoration area were 100% and 92.3%, respectively, both being no less than 90%.

[4] = Pharmacokinetics of 3-n-butylphthalide in rat plasma (value in literature); format: in vivo; details: rats, p.o. 60 mg/kg vs i.v. 10 mg/kg; calculated based on the literature value of AUC0-inf
[5] = system: Middle cerebral artery occlusion (MCAO) models of SD rats; assay: Rat cerebral stroke model (MCAO), 28 days, grid walking test; format: in vivo; details: 60 mg/kg p.o. q.d, Mean ± SD
Description: (§1) Middle cerebral artery occlusion (MCAO) models of SD rata were constructed by using the suture occlusion method. The rats were administered with the test compound for 28 consecutive days. The pharmacodynamic evaluation on the test compound for cerebral stroke was obtained based on general observation and neurobehavioral assessment.
(§2) After anesthesia induction with 3.0% isoflurane in SD rats (240-280 g), the operation was performed and the right common carotid artery (CCA), and the right-side neck area was dissected to reveal the right common carotid artery (CCA), external carotid artery (ECA) and internal carotid artery (ICA). The ECA was ligated. The ICA was temporarily occluded. Sutures were threaded at both the proximal end and the distal end of CCA. The distal end was securely ligated, and a loosely tied knot was placed at the proximal end. A small incision was made on the CCA between these two sutures. A No. 4-0 suture was inserted through the incision of CCA and slowly and gently pushed into the ICA. The threading was stopped temporarily when reaching the artery clamp of ICA. The pre-ligation suture was further tightened. The artery clamp blocking the blood flow in the ICA was removed, allowing the suture occlusion to be advanced into the ICA until it entered the intracranial region. […] The insertion was stopped at the moment, and the time was recorded. The artery clamp on the CCA was removed and the incision was closed after no active bleeding was observed. The ischemic rats were placed at room temperature to keep their body temperature at 37° C., and anesthesia induction could be carried out 120 min later. The suture was slowly and gradually withdrawn when the rats were maintained under anesthesia, so that the proximal end of the suture returned to the ECA, thereby initiating reperfusion of the middle cerebral artery. Animals received the designated dosage immediately (within 10 min) after reperfusion. This dosing regimen continued once daily for a duration of 28 days, with the day of operation being defined as D1 (Day 1). A total of 5 groups were set, sham surgery group, model control group, NBP group (60 mg/kg, p.o., q.d), compound (I) low dose p.o. group (6 mg/kg, p.o., q.d), and a compound (I) high dose p.o. group (20 mg/kg, p.o., q.d). During administration, all animals were subjected to grid walking tests (D7, D14, D21, and D28, 4 times in total) and novel object recognition tests (adaptation for novel object recognition on D26, test on D27). After the completion of the 28-day dosing period, all surviving animals in the study were euthanized, and their brains were rapidly collected for pathological analysis.

[6] = system: Middle cerebral artery occlusion (MCAO) models of SD rats; assay: Rat cerebral stroke model (MCAO), 28 days, novel object recognition test; format: in vivo; details: 60 mg/kg p.o. q.d, Mean ± SD
Description: as §1, §2

[7] = rats, value in literature, cited from earlier work
[8] = brain, read-out: Measured value in brain tissues Concentration
[9] = plasma, read-out: Measured value in plasma Concentration

CCC/C(O)=C1/C(=O)Oc2ccccc21 [Compound (I), (Z)-3-(1-hydroxybutylidene)benzofuran-2 (3H)-one]
F ([1]; p.o. 10 mg/kg vs i.v. 1 mg/kg): 144.2%
AUC0-inf ([1]; rat, iv, i.v. 1 mg/kg, plasma): 59200 ng·h/mL
AUC0-t ([1]; rat, iv, i.v. 1 mg/kg, plasma): 52500 ng·h/mL
MRT inf ([1]; rat, iv, i.v. 1 mg/kg, plasma): 9.8 h
half-life ([1]; rat, iv, i.v. 1 mg/kg, plasma): 7.5 h
AUC0-inf ([1]; rat, po, p.o. 10 mg/kg, plasma): 854000 ng·h/mL
AUC0-t ([1]; rat, po, p.o. 10 mg/kg, plasma): 703000 ng·h/mL
Cmax ([1]; rat, po, p.o. 10 mg/kg, plasma): 56500 ng/mL
MRT inf ([1]; rat, po, p.o. 10 mg/kg, plasma): 13.2 h
Tmax ([1]; rat, po, p.o. 10 mg/kg, plasma): 0.5 h
half-life ([1]; rat, po, p.o. 10 mg/kg, plasma): 9.6 h
concentration at 0.5 h [2, 8]: 8730 ng/g
concentration at 1 h [2, 8]: 5730 ng/g
concentration at 4 h [2, 8]: 5030 ng/g
concentration at 24 h [2, 8]: 285 ng/g
concentration at 0.5 h [2, 9]: 241000 ng/mL
concentration at 1 h [2, 9]: 192000 ng/mL
concentration at 4 h [2, 9]: 182000 ng/mL
concentration at 24 h [2, 9]: 23500 ng/mL
Number of animals with >10 erythrocyte-containing blood vessels ([3]; high dose 20 mg/kg p.o. q.d 28 days, N = 13, infarction restoration area, 20 mg/kg): 12**
Number of animals with >10 erythrocyte-containing blood vessels ([3]; high dose 20 mg/kg p.o. q.d 28 days, N = 13, infarction restoration area, listed as compound (I), 20 mg/kg): 12
Number of animals with >10 erythrocyte-containing blood vessels ([3]; low dose 6 mg/kg p.o. q.d 28 days, N = 12, infarction restoration area, 6 mg/kg): 12**
Number of animals with >10 erythrocyte-containing blood vessels ([3]; low dose 6 mg/kg p.o. q.d 28 days, N = 12, infarction restoration area, listed as compound (I), 6 mg/kg): 12

CCCCC1OC(=O)c2ccccc21 (stereo not drawn) [NBP, 3-n-butylphthalide]
F [4]: 16.6* %
concentration at 0.5 h [2, 8]: 28.5 ng/g
concentration at 1 h [2, 8]: 22.8 ng/g
concentration at 4 h [2, 8]: 10.2 ng/g
concentration at 0.5 h [2, 9]: 26 ng/mL
concentration at 1 h [2, 9]: 19.1 ng/mL
concentration at 4 h [2, 9]: 7.2 ng/mL
concentration at 24 h [2, 9]: 1.7 ng/mL
Misstep frequency ([5]; 1 W after operation, model control 7.24 ± 3.59): 7.37±3.03 times
Misstep frequency ([5]; 2 W after operation, model control 5.35 ± 4.40): 8.10 ± 2.97 times
Misstep frequency ([5]; 3 W after operation, model control 4.09 ± 3.140): 6.27 ± 2.890 times
Misstep frequency ([5]; 4 W after operation, model control 1.59 ± 0.84): 2.10 ± 1.46 times
Sniffing time Familiar object ([6]; model control 2.70 ± 2.22): 1.60 ± 1.01 S
Sniffing time Novel object ([6]; model control 3.82 ± 3.40): 4.94 ± 3.60 S
Recognition index Familiar object (FRI) ([6]; model control 45.19 ± 21.94): 29.03 ± 22.57%
Recognition index Novel object (NRI) ([6]; model control 54.81 ± 21.94): 70.97±22.57%
Number of samples Restoration area > 30% ([3]; 60 mg/kg p.o. q.d 28 days, N = 14, model control 3 of 17): 3
Number of samples Restoration area ≤ 30% ([3]; 60 mg/kg p.o. q.d 28 days, N = 14, model control 14 of 17): 11
Number of animals with ≤10 erythrocyte-containing blood vessels ([3]; 60 mg/kg p.o. q.d 28 days, N = 15, infarction restoration area, model control 10 of 17): 1
Proportion of samples having >10 erythrocyte-containing blood vessels ([3]; 60 mg/kg p.o. q.d 28 days, model control 41.2): 93.3%
Proportion of samples showing good recovery ([3]; 60 mg/kg p.o. q.d 28 days, restoration area >30%, model control 17.6): 21.4%
AUC0-inf ([7]; i.v. 10 mg/kg): 8620.0 ng·h/mL
AUC0-t ([7]; i.v. 10 mg/kg): 7230.0 ng·h/mL
MRTinf ([7]; i.v. 10 mg/kg): 2.4 h
T1/2 ([7]; i.v. 10 mg/kg): 2.2 h
AUC0-inf ([7]; p.o. 60 mg/kg): 8560.0 ng·h/mL
AUC0-t ([7]; p.o. 60 mg/kg): 7110.0 ng·h/mL
Cmax ([7]; p.o. 60 mg/kg): 2900.0 ng/mL
MRTinf ([7]; p.o. 60 mg/kg): 3.8 h
T1/2 ([7]; p.o. 60 mg/kg): 2.83 h
Tmax ([7]; p.o. 60 mg/kg): 0.7 h
